This is an account of results in article PMC11707700, “Exploiting fourth-generation synchrotron radiation for enzyme and photoreceptor characterization” (IUCrJ, 2025).

One test concerns the target T1, SaBphP2-PCM (Allostigmatella aurantiaca, UniProt Q09E27).
T1 construct: gene STIAU_8420; photosensory core module (PAS-GAF-PHY), lacks C-terminal effector (histidine kinase) domain; recombinant; homodimer
T1 sequence (Q09E27 1-490): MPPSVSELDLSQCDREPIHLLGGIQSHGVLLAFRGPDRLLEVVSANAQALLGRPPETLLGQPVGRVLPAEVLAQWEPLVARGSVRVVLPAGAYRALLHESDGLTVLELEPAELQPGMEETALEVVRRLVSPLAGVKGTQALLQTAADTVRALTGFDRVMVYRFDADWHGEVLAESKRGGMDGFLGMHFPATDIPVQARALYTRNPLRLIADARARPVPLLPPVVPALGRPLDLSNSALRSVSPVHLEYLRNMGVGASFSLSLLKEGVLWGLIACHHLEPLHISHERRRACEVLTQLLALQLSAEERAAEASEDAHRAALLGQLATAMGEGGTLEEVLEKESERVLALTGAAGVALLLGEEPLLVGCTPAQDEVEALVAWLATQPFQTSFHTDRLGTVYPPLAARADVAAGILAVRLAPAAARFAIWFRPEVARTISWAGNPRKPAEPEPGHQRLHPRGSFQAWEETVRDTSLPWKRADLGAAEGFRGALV
The experiment in a line: serial synchrotron X-ray crystallography (room temperature). To be noted: covalent; chromophore; dark Pr state, 2.1 A refinement; also difference map 700 ms after 640 nm light. In kind it is binding.

Test [1] concerns the target T2, photoactive yellow protein (PYP) (Halorhodospira halophila, UniProt P16113).
T2 construct: full length, 125 amino acids, 14 kDa; overexpressed in Escherichia coli; chromophore attached to the conserved cysteine
T2 sequence (P16113 1-125): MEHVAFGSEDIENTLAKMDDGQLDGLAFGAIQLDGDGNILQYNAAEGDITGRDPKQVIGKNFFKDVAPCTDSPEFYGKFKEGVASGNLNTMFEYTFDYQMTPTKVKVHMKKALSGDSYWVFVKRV
Described as above. It is filed as binding. To be noted: covalent; thioester to conserved cysteine; space group P6_5, 1.8 A (fixed target) and 1.9 A (tape drive); PEG 4000, MES pH 6.5.

`C=CC1=C(C)/C(=C/C2=NC(=C\c3[nH]c(/C=C4\NC(=O)C(C)=C4C=C)c(C)c3CCC(=O)O)/C(CCC(=O)O)=C2C)NC1=O` [biliverdin]: the “serial synchrotron X-ray crystallography (room temperature)” value on SaBphP2-PCM was “The DED features, localized to the BV chromophore, indicate displacement of the BV”.

Turning to `O=C(O)/C=C/c1ccc(O)cc1` [p-coumaric acid], in test [1], the “serial synchrotron X-ray crystallography (room temperature)” value is “The pCA chromophore pocket is marked by the red box”.
